Data published in patent US20220304957A1, “ANTI-CANCER COMPOSITIONS AND METHODS OF USE” (Board of Supervisors of Louisiana State University and …, priority 2019, published 2022).

What was measured:
[1] = system: GL-261-luc mouse glioblastoma cell line; assay: Cell death, trypan blue, GL-261; settings: 5-50 μM, 96 h
Protocol: (§1) The percentage of cell death was calculated at 96-hour time point for all experimental conditions.

[2] = Water solubility (HPLC); assay type: physicochemical; settings: room temperature, sonicated one hour
Protocol: Aliquots of 50 μM PP1 and FF in DMSO were added to 500 μl to heparinized human blood to a final concentration of 50 μM. Following incubation at 37° C. for the indicated time points, the samples were frozen at −80° C., and later prepared for HPLC-based detection of the compounds. Please note that FF is converted to FA in the presence of human blood. […] Data represent average values with standard deviation (n=3). panel B: Water solubility. FF and PP1, were added to water to a final concentration of 50 mM and sonicated in an ultrasonic bath (Branson 1510 Digital Heated Ultrasonic bath) for one hour at room temperature. The samples were then centrifuged for 10 minutes at 16000×g, and the supernatant filtered through 0.45 μm syringe filter. Water solubilized PP1 and FF were subsequently processed for HPLC analysis (see Methods). Data represent average values with standard deviation (n=3). panel C: Effects of PP compounds on PPAR responsive elements (PPRE). The PPAR transcriptional activity was determined in HepG2 cells by the JsTkpGL3 reporter plasmid, which contains a firefly luciferase gene driven by the PPRE, which consists of three copies of the J site from the apo-AII gene promoter. […] The luciferase activity was detected with Dual-Luciferase reporter assay system (Promega, Madison, Wis.), and the resulting luminescence measured with Synergy 2 microplate reader (BioTek, Winooski, Vt.). […]

[3] = system: U-87MG human glioblastoma cell line; assay: Cell death, trypan blue, U-87MG; settings: 5-50 μM, 96 h
Protocol: as §1

[4] = system: GBM12 patient-derived human glioblastoma cells; assay: Cell death, trypan blue, GBM12; settings: 5-50 μM, 96 h
Protocol: as §1

For `CN(CCO)C(=O)C(C)(C)Oc1ccc(C(=O)c2ccc(Cl)cc2)cc1` [PP1, 2-[4-(4-chlorobenzoyl)phenoxy]-N-(2-hydroxyethyl)-N,2-dimethylpropanamide], the “in vitro cytotoxicity” value [1] was “high in vitro cytotoxicity”, the “water solubility in comparison to FF” value [2] was “much better soluble in water” and the “in vitro cytotoxicity” value [3] was “high in vitro cytotoxicity”. For the same compound, the “in vitro cytotoxicity” value [4] was “high in vitro cytotoxicity”.
